Series [1] can be described thus: Solubility by shake flask method (OECD guideline No. 105) in purified water. Conditions: 25° C.
Procedure: Solubility measurements were carried out with the shake flask method according to the OECD guideline at 25° C.
Series [2] is described as follows: Solubility in gastrointestinal fluids. It counts as physicochemical.
A short description of series [3]: Relative stability of the polymorphic forms. Conditions: form α versus form β. It counts as physicochemical.
Series [4] in a line: Stability at ambient conditions. It counts as physicochemical.

Values after ≈ are worked out from the molar mass of the structure shown.

On to `O[C@H]1CC[C@H](Nc2nc(-c3ccccc3)nc3[nH]ccc23)CC1` [Base, 4-(4-trans-hydroxy-cyclohexyl)amino-2-phenyl-7H-pyrrolo[2,3d]pyrimidine], for which the Solubility (in general, how much of the substance goes into solution per volume) in series [1] came out at 5.9 ng/mL (≈ 0.0191 µM). In addition, in series [2], the “solubility in gastrointestinal fluids (in words)” value was “low solubility”. `CS(=O)(=O)O.OC1CCC(Nc2nc(-c3ccccc3)nc3[nH]ccc23)CC1` (stereo not drawn) [Polymorph α, 4-(4-trans-hydroxy-cyclohexyl)amino-2-phenyl-7H-pyrrolo[2,3d]pyrimidine mesylate]: the “polymorphic stability (in words)” value in series [3] is recorded as “metastable with respect to form β”. Still for that read-out and setting: for `CS(=O)(=O)O.OC1CCC(Nc2nc(-c3ccccc3)nc3[nH]ccc23)CC1` (stereo not drawn) [Polymorph β, 4-(4-trans-hydroxy-cyclohexyl)amino-2-phenyl-7H-pyrrolo[2,3d]pyrimidine mesylate] the value was “stable form”. Regarding `CS(=O)(=O)O.OC1CCC(Nc2nc(-c3ccccc3)nc3[nH]ccc23)CC1` (stereo not drawn) [mesylate salt, 4-(4-trans-hydroxy-cyclohexyl)amino-2-phenyl-7H-pyrrolo[2,3d]-pyrimidine mesylate], the “stability at ambient conditions (in words)” value in series [4] was “very stable”.
